These results are taken from US6331610A, “Method for treating AIDS and HIV infection using select peptides from the beta subunit of human chorionic gonadotropin” (priority 1997, dated 2001).

Entries after “also recorded” stand apart in the source; their conditions may differ.

The test system of one data set is MT-4 cells. The conditions noted are these: 100 ng/ml and concentrations up to 1,000-fold higher.
For another data set, the system named is IIIB strain of HIV-1. As to the kind of experiment: Anti-HIV effect: protection of MT-4 T lymphocytes from HIV-caused cell death (XTT assay). It is filed as cell-based. Particulars: MT-4, HIV-1 IIIB, 100 mcg-1 ng per ml, 5-7 days. As for the experimental part: Viability=100%×[(ODT)-(ODD)]/[(ODM)-(ODD)]
Where ODT is optical density values of culture wells treated with test peptides; ODM optical density of mock-infected cells; ODD light absorbance values of untreated cells dead from exposure to HIV.
The serial ten-fold dilutions (100 mcg-1 ng per ml) of 6 different synthetic peptides representing N-terminal and core region of hCG were tested for their effect on HIV replication (FIG. 1). […] In these experiments the viability of MT4 was determined after 5-7 days of continuous presence of the virus and hCG peptide fragment in the target cell culture.
On the technique in general: Tetrazolium assays rely on reduction of a dye to a coloured formazan, in cell work by metabolically active cells.

Procedure for MT-4 cells: MT-4 T lymphocytes (5×10^4 cells/ml) were seeded in 96well plates and exposed to IIIB strain of HIV-1 (at MOI equal to 100 infectious doses) in the presence of ten-fold, serial dilutions of hCG peptides (range 100 mcg-1 ng per ml). […] The tests were repeated three times with duplicates for each dilution of an individual peptide. All cultures were grown in RPMI-1640/10% FBS medium supplemented witi L-glutamine and penicillin/streptomycin. The culture plates were kept in a humidified incubator with 5% CO2 at 37° C. […] This difference in the survival pattern, indicative of the antiviral activity, was quantitated by tetrazolium salt XTT assay. This assay is based on the rationale that the viability of MT-4 correlates directly with the activity of mitochondrial hydrogenases converting XTT into optically dense formazan dye. […] At the appropriate time 1 mg/ml of XTT (Sigma, St Louis, Mo.) was nixed with 1% w/v phenazine methosulfate (Aldrich, Milwaukee, Wis.) and 20 mcl of the mixture was added to the wells for 4 hours. The optical density of formazan was then determined in a plate reader at 450 nm with reference filter at 620 nm. The proportion of surviving MT-4 cells treated with hCG peptides was calculated as a function of the viability of mock-infected cells in relation to positive control wells containing untreated cells dead from exposure to HIV.

Regarding `CC[C@H](C)[C@H](NC(=O)[C@@H]1CCCN1C(=O)[C@@H](NC(=O)[C@H](CC(=O)O)NC(=O)[C@H](CO)NC(=O)[C@@H]1CCCN1C(=O)CNC(=O)[C@@H]1CCCN1C(=O)[C@H](CC(C)C)NC(=O)[C@H](CCCNC(=N)N)NC(=O)[C@H](CO)NC(=O)[C@@H]1CCCN1C(=O)[C@H](CO)NC(=O)[C@@H]1CCCN1C(=O)[C@H](CC(C)C)NC(=O)[C@H](CO)NC(=O)[C@@H]1CCCN1C(=O)[C@@H]1CCCN1C(=O)[C@@H]1CCCN1C(=O)[C@H](C)NC(=O)[C@H](CCCCN)NC(=O)[C@H](CO)NC(=O)[C@H](CO)NC(=O)[C@H](CO)NC(=O)[C@H](CO)NC(=O)[C@H](CC(=O)O)NC(=O)[C@H](CCC(N)=O)NC(=O)[C@H](Cc1ccccc1)NC(=O)[C@H](CCCNC(=N)N)NC(=O)[C@@H]1CCCN1C(=O)[C@H](CC(=O)O)NC(=O)[C@H](CC(=O)O)NC(=O)[C@H](CS)NC(=O)[C@@H](NC(=O)[C@H](CC(C)C)NC(=O)[C@@H]1CCCN1C(=O)[C@@H](N)Cc1c[nH]cn1)[C@@H](C)O)[C@@H](C)O)C(=O)N[C@@H](CC(C)C)C(=O)N1CCC[C@H]1C(=O)N[C@@H](CCC(N)=O)C(=O)O` [CTP of hCG], the “toxicity to cells employed in the assay” value in the data set with MT-4 cells is reported as “not toxic”.

For “C100 GGPKDHPLTC110 DD (CGGPKDHPLTCDD) [compound 7]”, the “anti-HIV effect (in words)” value with IIIB strain of HIV-1 was “active; also recorded: restricted effect”.

In the case of “K20 EGCPVCITVN30 TT (KEGCPVCITVNTT) [peptide #1]”, the “anti-HIV effect (in words)” value in the data set with IIIB strain of HIV-1 is recorded as “active at nanogram doses”.
